pIC50: −log10 of the molar value. Each block holds one compound with its values, some of them ahead of it.
Experiments:
menin protein = target: T1, menin protein (Homo sapiens, UniProt O00255); experiment: Fluorescence polarization; details: for Times more potent than MIV-6 in binding to menin: FP binding assay
T1 sequence (O00255 1-610): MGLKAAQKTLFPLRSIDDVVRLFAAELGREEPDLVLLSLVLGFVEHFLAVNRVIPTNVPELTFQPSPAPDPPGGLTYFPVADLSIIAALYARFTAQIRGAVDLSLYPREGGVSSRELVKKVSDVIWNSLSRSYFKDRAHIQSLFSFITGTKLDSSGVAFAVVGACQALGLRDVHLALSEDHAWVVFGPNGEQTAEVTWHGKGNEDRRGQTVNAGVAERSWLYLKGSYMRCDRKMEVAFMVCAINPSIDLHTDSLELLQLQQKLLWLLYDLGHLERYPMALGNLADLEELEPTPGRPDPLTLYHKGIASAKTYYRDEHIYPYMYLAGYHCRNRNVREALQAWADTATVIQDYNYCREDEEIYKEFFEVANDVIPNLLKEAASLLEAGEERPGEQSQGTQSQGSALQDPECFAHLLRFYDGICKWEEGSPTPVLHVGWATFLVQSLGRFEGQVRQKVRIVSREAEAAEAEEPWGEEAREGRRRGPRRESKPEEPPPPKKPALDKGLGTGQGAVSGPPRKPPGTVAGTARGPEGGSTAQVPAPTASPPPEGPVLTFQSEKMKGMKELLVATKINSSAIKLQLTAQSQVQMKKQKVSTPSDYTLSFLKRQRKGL

MV4;11 cell line = experiment: Cell growth inhibition assay; format: cell-based, human
Solubility comparison = format: physicochemical; details: compared with 20

Compound: N#Cc1ccc(N2CC(CN3CCC(C(C#N)(c4ccccc4)C4CCCC4)CC3)C2)cc1 (racemic) [Compound 31, rac-4-(3-((4-(cyano(cyclopentyl)(phenyl)methyl)piperidin-1-yl)methyl)azetidin-1-yl)benzonitrile]
Times weaker than MIV-6 in binding to menin (menin protein): 16 times

Compound: CCCC(=O)O[C@H]1CCC[C@@H]1[C@](C#N)(c1ccccc1)C1CCN(CC2CN(c3ccc(C#N)cc3)C2)CC1 (mixture of isomers) [Compound 38, rac-(1S,2R)-2-((S)-Cyano(1-((1-(4-cyanophenyl)azetidin-3-yl)methyl)piperidin-4-yl)-(phenyl)methyl)cyclopentyl butyrate]
Fold loss in binding affinity to menin relative to 37 (menin protein): 30 fold

Compound: O=S(=O)(c1ccncc1)c1ccc(N2CC(CN3CCC(C4(C5CCCC5)CNCc5ccccc54)CC3)C2)cc1 (stereo not drawn) [Compound 22, 4-Cyclopentyl-4-(1-((1-(4-(pyridin-4-ylsulfonyl)phenyl)azetidin-3-yl)methyl)piperidin-4-yl)-1,2,3,4-tetrahydroisoquinoline]
Times more potent than 21 in binding to menin (menin protein): 2-3 times

Compound: CNC(=O)O[C@H]1CCC[C@@H]1[C@]1(C2CCN(CC3CN(c4ccc(S(=O)(=O)c5ccncc5)cc4)C3)CC2)CN(C)Cc2ccccc21 (mixture of isomers) [Compound 42, rac-(1S,2R)-2-((S)-2-Methyl-4-(1-((1-(4-(pyridin-4-ylsulfonyl)phenyl)azetidin-3-yl)methyl)piperidin-4-yl)-1,2,3,4-tetrahydroisoquinolin-4-yl)cyclopentyl methylcarbamate]
Times more potent than MIV-6 in cell growth inhibition (MV4;11 cell line; MV4;11 (M-89: MV4;11 and MOLM-13)): > 100 times

Compound: O=S(=O)(c1ccncc1)c1ccc(N2CC(CN3CCC(C4(C5CCCC5)NCCc5ccccc54)CC3)C2)cc1 (stereo not drawn) [Compound 21, 1-Cyclopentyl-1-(1-((1-(4-(pyridin-4-ylsulfonyl)phenyl)azetidin-3-yl)methyl)piperidin-4-yl)-1,2,3,4-tetrahydroisoquinoline]
Relative solubility (Solubility comparison): more soluble than 20

Compound: CC(=O)O[C@H]1CCC[C@@H]1[C@](C#N)(c1ccccc1)C1CCN(CC2CN(c3ccc(C#N)cc3)C2)CC1 (mixture of isomers) [Compound 35, rac-(1S,2R)-2-((S)-Cyano(1-((1-(4-cyanophenyl)azetidin-3-yl)methyl)piperidin-4-yl)(phenyl)methyl)cyclopentyl acetate]
Times more potent than 31 in binding to menin (menin protein): 80 times

Compound: CNC(=O)O[C@H]1CCC[C@@H]1[C@](C#N)(c1ccccc1)C1CCN(CC2CN(c3ccc(C#N)cc3)C2)CC1 (mixture of isomers) [Compound 39, rac-(1S,2R)-2-((S)-Cyano(1-((1-(4-cyanophenyl)azetidin-3-yl)methyl)piperidin-4-yl)-(phenyl)methyl)cyclopentyl methylcarbamate]
Factor of enhancement of cellular activity in MV4;11 relative to 31 (MV4;11 cell line): > 50
Times more potent than 31 in binding to menin (menin protein): > 100 times

Compound: CN1Cc2ccccc2C(C2CCCC2)(C2CCN(CC3CN(c4ccc(S(=O)(=O)c5ccncc5)cc4)C3)CC2)C1 (stereo not drawn) [Compound 23, 4-Cyclopentyl-2-methyl-4-(1-((1-(4-(pyridin-4-ylsulfonyl)phenyl)azetidin-3-yl)methyl)piperidin-4-yl)-1,2,3,4-tetrahydroisoquinoline]
pIC50 (MV4;11 cell line; Homo sapiens, MV4-11, read-out: IC50 cell growth inhibition MV4;11): 6.00 to 6.40

Continued, values first:

Times more potent than 15 in binding to menin (menin protein): 2-3 times
Compound: O=S(=O)(c1ccc(N2CC(CN3CCC(C4(C5CCCC5)NCCc5ccccc54)CC3)C2)cc1)C1CC1 (stereo not drawn) [Compound 16, 1-Cyclopentyl-1-(1-((1-(4-(cyclopropylsulfonyl)phenyl)azetidin-3-yl)methyl)piperidin-4-yl)-1,2,3,4-tetrahydroisoquinoline]

Times more potent than MIV-6 in binding to menin (menin protein): 2-3 times
Compound: N#Cc1ccc(OCCCN2CCC(C3(C4CCCC4)NCCc4ccccc43)CC2)cc1 (stereo not drawn) [Compound 6, 4-(3-(4-(1-Cyclopentyl-1,2,3,4-tetrahydroisoquinolin-1-yl)piperidin-1-yl)propoxy)-benzonitrile]

Times less potent than 12 in binding to menin (menin protein): 4 times
Compound: CS(=O)(=O)c1ccc(N2CC(CN3CCC(C4(C5CCCC5)NCCc5ccccc54)CC3)C2)cc1 (stereo not drawn) [Compound 13, 1-Cyclopentyl-1-(1-((1-(4-(methylsulfonyl)phenyl)azetidin-3-yl)methyl)piperidin-4-yl)-1,2,3,4-tetrahydroisoquinoline]

Times more potent than 6 in binding to menin (menin protein): 2 times
Times more potent than MIV-6 in binding to menin (menin protein): 5 times
Compound: N#Cc1ccc(N2CC(CN3CCC(C4(C5CCCC5)NCCc5ccccc54)CC3)C2)cc1 (stereo not drawn) [Compound 12, 4-(3-((4-(1-Cyclopentyl-1,2,3,4-tetrahydroisoquinolin-1-yl)piperidin-1-yl)methyl)azetidin-1-yl)benzonitrile]

Times less potent than 6 in binding to menin (menin protein): ~100 times
Compound: N#Cc1ccc(N2CCCC(CN3CCC(C4(C5CCCC5)NCCc5ccccc54)CC3)C2)cc1 (stereo not drawn) [Compound 10, 4-(3-((4-(1-Cyclopentyl-1,2,3,4-tetrahydroisoquinolin-1-yl)piperidin-1-yl)methyl)piperidin-1-yl)benzonitrile]

Times less potent than 6 in binding to menin (menin protein): approximately 10 times
Compound: N#Cc1ccc(N2CCC(N3CCC(C4(C5CCCC5)NCCc5ccccc54)CC3)CC2)cc1 (stereo not drawn) [Compound 9, 4-(4-(1-Cyclopentyl-1,2,3,4-tetrahydroisoquinolin-1-yl)-[1,4'-bipiperidin]-1'-yl)benzonitrile]

Times less potent than 14 in binding to menin (menin protein): 2 times
Times more potent than 13 in binding to menin (menin protein): 2 times
Compound: CC(C)S(=O)(=O)c1ccc(N2CC(CN3CCC(C4(C5CCCC5)NCCc5ccccc54)CC3)C2)cc1 (stereo not drawn) [Compound 15, 1-Cyclopentyl-1-(1-((1-(4-(isopropylsulfonyl)phenyl)azetidin-3-yl)methyl)piperidin-4-yl)-1,2,3,4-tetrahydroisoquinoline]

Source: paper PMC7057177 (Journal of medicinal chemistry, 2019)
